According to ChEMBL document CHEMBL4431320 (J Med Chem, 2016):
Active and inactive are the calls of the source. The rule behind the calls is not given here.

Experiments:
[1] = molecular target: Acetylcholinesterase (Electrophorus electricus) (UniProt O42275); assay: Inhibition of electric eel AChE at 10 uM using ACTI as substrate preincubated for 29 mins followed by substrate addition measured at 1 min intervals for 10 mins by Ellman's assay
Cholinesterase [2] = molecular target: Cholinesterase (Equus caballus, UniProt P81908)
Description: Inhibition of equine BuChE using ACTI as substrate preincubated for 29 mins followed by substrate addition measured at 1 min intervals for 10 mins by Ellman's assay

[3] = molecular target: Cholinesterase (Equus caballus) (UniProt P81908); assay: Inhibition of equine BuChE at 10 uM using ACTI as substrate preincubated for 29 mins followed by substrate addition measured at 1 min intervals for 10 mins by Ellman's assay
[4] = Selectivity ratio of IC50 for equine BuChE to IC50 for human BuChE
[5] = Permeability of compound at 10 uM after 4 hrs by PAMPA; assay type: ADME; conditions: read-out: permeability
[6] = Stability of compound in crystallization buffer at pH 7.4 at 0.1 mg/mL incubated for 24 hrs by RP-HPLC analysis in presence of equine BuChE; assay type: physicochemical; conditions: pH 7.4, 24 h
SH-SY5Y = assay: Cytotoxicity against human SH-SY5Y cells at 0.5 to 10 uM after 48 hrs by MTT assay; assay type: cell-based
[7] = Stability of compound in crystallization buffer at pH 7.4 at 0.1 mg/mL incubated for 24 hrs by RP-HPLC analysis; assay type: physicochemical; conditions: pH 7.4, 24 h
Cholinesterase [8] = molecular target: Cholinesterase (Homo sapiens, UniProt P06276)
Description: Inhibition of human BuChE using ACTI as substrate incubated for 40 mins measured at 1 min intervals for 10 mins by Ellman's assay

[9] = molecular target: Acetylcholinesterase (Homo sapiens) (UniProt P22303); assay: Inhibition of human AChE at 10 uM using ACTI as substrate incubated for 40 mins measured at 1 min intervals for 10 mins by Ellman's assay
Acetylcholinesterase (Homo sapiens), sequence (P22303 whole entry): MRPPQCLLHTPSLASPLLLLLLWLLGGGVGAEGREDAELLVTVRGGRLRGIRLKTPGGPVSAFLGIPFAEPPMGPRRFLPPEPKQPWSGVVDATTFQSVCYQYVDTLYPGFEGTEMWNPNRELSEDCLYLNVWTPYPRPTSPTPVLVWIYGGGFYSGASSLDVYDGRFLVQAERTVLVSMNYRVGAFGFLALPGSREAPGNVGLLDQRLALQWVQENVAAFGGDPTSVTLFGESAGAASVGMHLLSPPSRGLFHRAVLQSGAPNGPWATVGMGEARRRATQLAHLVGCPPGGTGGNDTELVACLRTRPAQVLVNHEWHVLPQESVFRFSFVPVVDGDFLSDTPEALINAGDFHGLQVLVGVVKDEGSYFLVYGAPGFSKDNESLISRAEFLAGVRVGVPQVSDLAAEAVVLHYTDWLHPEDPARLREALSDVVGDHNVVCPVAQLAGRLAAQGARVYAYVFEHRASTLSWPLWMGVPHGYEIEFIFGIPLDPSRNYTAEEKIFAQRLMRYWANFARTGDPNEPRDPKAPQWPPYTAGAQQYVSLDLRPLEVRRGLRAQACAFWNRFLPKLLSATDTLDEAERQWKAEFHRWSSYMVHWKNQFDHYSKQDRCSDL

Acetylcholinesterase (Electrophorus electricus), sequence (O42275 24-633 limits assumed): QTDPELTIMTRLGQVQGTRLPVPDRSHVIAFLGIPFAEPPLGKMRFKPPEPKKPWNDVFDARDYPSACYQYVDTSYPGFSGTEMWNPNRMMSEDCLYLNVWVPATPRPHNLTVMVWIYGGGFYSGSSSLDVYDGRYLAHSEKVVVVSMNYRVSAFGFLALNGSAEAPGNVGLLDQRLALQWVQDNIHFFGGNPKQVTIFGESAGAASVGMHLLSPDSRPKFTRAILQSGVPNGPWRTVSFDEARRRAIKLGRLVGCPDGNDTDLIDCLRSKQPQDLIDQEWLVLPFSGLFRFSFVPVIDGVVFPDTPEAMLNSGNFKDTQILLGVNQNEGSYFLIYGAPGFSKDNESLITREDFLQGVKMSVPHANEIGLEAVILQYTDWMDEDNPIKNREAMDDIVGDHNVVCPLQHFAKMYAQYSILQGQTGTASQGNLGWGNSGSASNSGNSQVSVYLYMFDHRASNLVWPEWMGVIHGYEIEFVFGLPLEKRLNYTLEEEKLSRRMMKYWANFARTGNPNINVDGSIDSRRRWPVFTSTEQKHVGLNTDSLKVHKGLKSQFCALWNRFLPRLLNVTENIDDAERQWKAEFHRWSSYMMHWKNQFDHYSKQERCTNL
Cholinesterase (Equus caballus), sequence (P81908 whole entry): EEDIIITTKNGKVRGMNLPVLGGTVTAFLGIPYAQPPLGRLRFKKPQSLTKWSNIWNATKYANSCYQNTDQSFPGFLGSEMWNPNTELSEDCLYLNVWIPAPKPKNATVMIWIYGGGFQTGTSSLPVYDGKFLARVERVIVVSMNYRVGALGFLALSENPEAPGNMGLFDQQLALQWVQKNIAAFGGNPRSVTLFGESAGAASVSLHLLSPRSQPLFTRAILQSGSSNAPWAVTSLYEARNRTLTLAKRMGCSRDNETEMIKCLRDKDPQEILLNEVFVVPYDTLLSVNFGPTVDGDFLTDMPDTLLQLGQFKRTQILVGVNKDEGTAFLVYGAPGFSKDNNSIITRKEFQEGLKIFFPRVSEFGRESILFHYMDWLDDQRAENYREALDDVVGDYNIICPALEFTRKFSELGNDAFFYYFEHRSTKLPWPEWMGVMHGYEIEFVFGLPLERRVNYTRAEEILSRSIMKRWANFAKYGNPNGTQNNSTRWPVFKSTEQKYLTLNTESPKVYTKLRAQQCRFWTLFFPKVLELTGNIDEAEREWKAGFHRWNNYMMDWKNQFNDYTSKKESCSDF
Cholinesterase (Equus caballus, UniProt P81908), sequence (P81908 whole entry): as above
Cholinesterase (Homo sapiens, UniProt P06276), sequence (P06276 whole entry): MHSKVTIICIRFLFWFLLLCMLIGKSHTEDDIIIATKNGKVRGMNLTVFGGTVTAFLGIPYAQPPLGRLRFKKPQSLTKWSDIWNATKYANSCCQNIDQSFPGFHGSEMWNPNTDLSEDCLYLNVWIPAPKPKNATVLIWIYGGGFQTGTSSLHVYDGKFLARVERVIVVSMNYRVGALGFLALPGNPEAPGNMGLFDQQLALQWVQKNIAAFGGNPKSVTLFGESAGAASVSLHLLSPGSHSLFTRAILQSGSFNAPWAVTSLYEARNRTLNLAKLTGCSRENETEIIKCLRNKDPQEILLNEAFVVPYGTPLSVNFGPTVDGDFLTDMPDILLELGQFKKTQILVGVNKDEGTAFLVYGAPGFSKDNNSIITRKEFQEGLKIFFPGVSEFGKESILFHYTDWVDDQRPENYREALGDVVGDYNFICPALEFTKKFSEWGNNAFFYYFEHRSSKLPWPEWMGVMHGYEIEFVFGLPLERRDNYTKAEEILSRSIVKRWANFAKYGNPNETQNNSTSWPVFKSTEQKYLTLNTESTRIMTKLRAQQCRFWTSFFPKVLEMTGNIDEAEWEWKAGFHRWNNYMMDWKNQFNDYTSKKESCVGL

| Compound | inhibition [1] | inhibition [3] | further results |
| --- | --- | --- | --- |
| Cc1ccccc1-n1nc(C)c(CN(CCN(C)C)Cc2ccccn2)c1C | 2.46% | 31.9% | IC50 (Cholinesterase [2]): 19.2 µM |
| CCCCSc1nc2c(c(=O)[nH]c(=O)n2C)n1C[C@@H](O)COc1cccc2ccccc12 | 5.34% | 3.69% | – |
| CCn1c2ccccc2c2cc(C3C(C(=O)OCC4CCCO4)=C(C)NC4=C3C(=O)CCC4)ccc21 (stereo unspecified) | 1.73% | 84.2% | Ratio IC50 [4]: 2; Papp at 4 h, 10 µM [5]: 2.46 ×10⁻⁶ cm/s; Stability [6]: Stable; Activity (SH-SY5Y): Non-Toxic; Stability [7]: Stable; IC50 (Cholinesterase [8]): 0.443 µM; IC50 (Cholinesterase [2]): 0.763 µM; inhibition [9]: inactive |
| O=C(Cn1cc(C(=O)C2CC2)c2ccccc21)NCCc1c[nH]c2ccccc12 | 3.44% | 7.28% | – |
| CCn1c2ccccc2c2cc(C3C(C(=O)OC4CCCC4)=C(C)NC4=C3C(=O)CC(C)(C)C4)ccc21 (stereo unspecified) | – | 2.53% | – |
| Cc1cc(C)n(C[C@H](O)CN(Cc2nc3ccccc3[nH]2)Cc2ccco2)n1 | 2.32% | 6.33% | – |
| O=C(O)[C@H](Cc1c[nH]c2ccccc12)Nc1ncnc2c1oc1ccccc12 | 1.45% | 7.18% | – |
| Cc1cc2nc([C@@H]3CCCN3C(=O)[C@H]3C[C@@H](O)CN3Cc3ccccc3)[nH]c2cc1C | inactive | 17.5% | IC50 (Cholinesterase [2]): 46.8 µM |
| O=C(CS[C@@H]1CC(=O)N(c2ccccc2)C1=O)Nc1ccccc1F | 0.484% | 6.01% | – |
| CCSCCOC(=O)C1=C(C)NC2=C(C(=O)CCC2)C1c1ccc2c(c1)c1ccccc1n2CC (stereo unspecified) | – | 51.2% | – |
| CN(CC(=O)Nc1ccccc1F)S(=O)(=O)c1ccc2ccccc2c1 | 3.43% | 5.64% | – |
| O[C@H](CN1CCN(c2ccccc2)CC1)c1c[nH]c2ccc(F)cc12 | 2.69% | 1.31% | – |
| CCn1c2ccccc2c2cc(C3C(C(=O)OC)=C(C)NC4=C3C(=O)CCC4)ccc21 (stereo unspecified) | – | 49.5% | – |
| CCOCCOC(=O)C1=C(C)NC2=C(C(=O)CC(C)(C)C2)C1c1ccc2c(c1)c1ccccc1n2CC (stereo unspecified) | – | 2.49% | – |
| Cc1cccc(C2(O)CCN(Cc3c(-c4cccs4)[nH]c4ncccc34)CC2)c1 | 2.14% | 16.2% | IC50 (Cholinesterase [2]): 48.9 µM |
| CCn1c2ccccc2c2cc([C@@H]3C(C(=O)OCCOC)=C(C)NC4=C3C(=O)CCC4)ccc21 | 1.35% | 52.7% | IC50 (Cholinesterase [2]): 9.72 µM |
| CCCCOC(=O)C1=C(C)NC2=C(C(=O)CCC2)C1c1ccc2c(c1)c1ccccc1n2CC (stereo unspecified) | – | 53.7% | – |
| COc1ccccc1NC(=O)Cn1c(CCC(=O)O)ccc1-c1ccccc1 | 2.2% | 5.54% | – |
| CCC(C)OC(=O)C1=C(C)NC2=C(C(=O)CC(C)(C)C2)C1c1ccc2c(c1)c1ccccc1n2CC (stereo unspecified) | – | inactive | – |
| CCOC(=O)N1CCN([C@H]2CC(=O)N(c3cccc4ccccc34)C2=O)CC1 | 4.93% | 1.85% | – |
